Assays:
[1] = system: 2,3-diphosphoglycerate phosphatase; conditions: at optimal concentrations; cited from earlier work
2,3-DPG phosphatase = biological target: T1, 2,3-DPG phosphatase (Homo sapiens, UniProt P07738); assay: 2,3-Diphosphoglycerate phosphatase assay (radiochemical, release of 32P-phosphate from 2,3-DPG); format: biochemical; conditions: 110 μM 2,3-DPG, 5 μM phosphoglycolate, pH 7.5, 37° C., 20 minutes
T1 sequence (P07738 1-259): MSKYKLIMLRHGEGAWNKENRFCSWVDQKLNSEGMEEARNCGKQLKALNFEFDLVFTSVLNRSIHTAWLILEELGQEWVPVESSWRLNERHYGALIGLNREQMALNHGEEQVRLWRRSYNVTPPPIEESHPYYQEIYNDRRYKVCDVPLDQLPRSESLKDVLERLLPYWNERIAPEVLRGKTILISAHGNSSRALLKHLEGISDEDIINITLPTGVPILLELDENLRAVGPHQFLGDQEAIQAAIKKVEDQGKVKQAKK
Protocol: 1. 2,3-Diphosphoglycerate Phosphatase Assay
The activity of 2,3-DPG phosphatase was determined radiochemically using a method based on Rose et al., (J. Biol. Chem. 245, 3232-3241, 1970). In this method the activity of the phosphatase is measured by determining the release of inorganic phosphate from the substrate, 2,3-DPG. The test compounds were dissolved in dimethyl sulfoxide at 100 times the final concentration used and then added to the reaction mixture at the beginning of the assay period. In the control experiments equivalent concentration of dimethyl sulfoxide was used.
14 μg of 2,3-DPG phosphatase was incubated in 0.2 ml of N-tris-[Hydroxy-methyl]methyl-2-aminoethane-sulfonic acid [TES], at pH 7.5, containing 110 μM ^32 p-labeled 2,3-DPG (having a specific activity of 70 to 200 μCi/μmol), 5 μM phosphoglycolate and 5 μM mercaptoethanol at 37° C. for 20 minutes in the presence and absence of the test compound. at the end of incubation the reaction was stopped by the addition of 0.1 ml of 15% w/v trichloroacetic acid and the sample was centrifuged (Eppendorf microfuge, Model 5413) in order to remove protein preciptitates. Then 0.2 ml of the supernatant was withdrawn and mixed with 0.1 ml of 8 M sulfuric acid, 0.1 ml of 5% w/v ammonium molybdate and 0.6 ml of water. The mixture then was extracted with 2 ml of isobutanol/benzene (1:1,v/v) and then centrifuged to effect separation of the phases. 1 ml of the organic phase containing the extracted ^32 p-phosphate was counted in a scintillation counter (Beckman, Model LS 8,000) using a program for ^32 p radioactivity. The activity of the enzyme was expressed as number of mole phosphate released per minute.
From the data obtained using the radiochemical method, percent inhibition of 2,3-DPG phosphatase was calculated. […] Representative inhibitory activity is shown for sulfasalazine in Table I.

human red blood cells = assay: Determination of 2,3-diphosphoglyceric acid content in human red blood cells; format: cell-based
Protocol: 2. Determination of 2,3-Diphosphoglyceric Acid Content in Human Red Blood Cells Blood samples from healthy subjects were collected in heparnized tubes and were centrifuged for 10 minutes at 400 xg. The plasma and buffy layer containing while cells and platelets was removed. The red blood cells were washed three times in Krebs Ringer Bicarbonate buffer supplemented with 2.5 mg/ml bovine serum albumin. The washed cells were suspended in the same buffer in a ratio of 1 cell to 4 buffer v/v. The cell suspension was incubated in siliconized glass beakers in the absence and presence of the test compound at 37° C. in air, supplemented with 5% v/v carbon dioxide. After incubation, 1 ml of the blood sample was mixed with 1 ml of 12% w/v trichloroacetic acid. The mixture was left at 4° C. for 10 minutes and then was clarified by centrifugation. The 2,3-DPG content in the supernatant was quantified using a Sigma assay kit based on the method described by Lowry et al, J. Biol. Chem. 239, 18, 1964. Inhibition of 2,3-diphosphoglyceric acid degredation in human red blood cells was also conducted on compounds of the present invention and is shown in Table II for sulfasalazine.

Row | inhibition at 20 µM (2,3-DPG phosphatase; sulfasalazine 20 μM) | inhibition at 100 µM (2,3-DPG phosphatase; sulfasalazine 100 μM) | inhibition at 500 µM (2,3-DPG phosphatase; sulfasalazine 500 μM) | inhibition at 1000 µM (2,3-DPG phosphatase; sulfasalazine 1000 μM) | Structure (SMILES) | enhancement of the activity of 2,3-diphosphoglycerate phosphatase [1] | 2,3-diphosphoglyceric acid content (human red blood cells; sulfasalazine 0.5 mM, incubation period 0 hrs, 37° C.) | 2,3-diphosphoglyceric acid content (human red blood cells; sulfasalazine 0.5 mM, incubation period 3 hrs, 37° C. (control 3.7)) | 2,3-diphosphoglyceric acid content (human red blood cells; sulfasalazine 0.5 mM, incubation period 6 hrs, 37° C. (control 2.4)) | 2,3-diphosphoglyceric acid content (human red blood cells; sulfasalazine 1.0 mM, incubation period 0 hrs, 37° C.) | 2,3-diphosphoglyceric acid content (human red blood cells; sulfasalazine 1.0 mM, incubation period 3 hrs, 37° C. (control 3.7)) | 2,3-diphosphoglyceric acid content (human red blood cells; sulfasalazine 1.0 mM, incubation period 6 hrs, 37° C. (control 2.4))
1 | – | – | – | – | O=C(O)COP(=O)(O)O [2-Phosphoglycolate] | about 1600 fold | – | – | – | – | – | –
2 | 23% | 57% | 86% | 90% | O=C(O)c1cc(N=Nc2ccc(S(=O)(=O)Nc3ccccn3)cc2)ccc1O [sulfasalazine, 5-[[p-(2-pyridylsulfamoyl)phenyl]azo]salicyclic acid] | – | 4.4 μmole/ml RBC | 3.9 μmole/ml RBC | 3.0 μmole/ml RBC | 4.4 μmole/ml RBC | 4.1 μmole/ml RBC | 3.5 μmole/ml RBC
